Experimental data reported in ChEMBL document CHEMBL1156786, “Conformationally constrained mimetics of laminin peptide YIGSR as precursors for antimetastatic disintegrins” (J Med Chem, 2009).
Where a SMILES comes first, the peptide text is derived from it.

Assays:
Assay type in all cases: cell-based
[1] = target: Small ribosomal subunit protein uS2 (Mus musculus) (UniProt P14206); assay: Binding affinity to LAMR1 in mouse B16-F10 cells assessed as maximal cell attachment to compound coated plates after 3 hrs by hemocytometer
[2] = target: Small ribosomal subunit protein uS2 (Homo sapiens) (UniProt P08865); assay: Binding affinity to LAMR1 in human HeLa cells assessed as maximal cell attachment to compound coated plates after 3 hrs by hemocytometer
[3] = target: Small ribosomal subunit protein uS2 (Homo sapiens) (UniProt P08865); assay: Binding affinity to LAMR1 in human HT1080 cells assessed as maximal cell attachment to compound coated plates after 3 hrs by hemocytometer; conditions: HT-1080
[4] = target: Small ribosomal subunit protein uS2 (Homo sapiens) (UniProt P08865); assay: Binding affinity to LAMR1 in human HT1080 cells assessed as maximal cell attachment to compound coated plates at 20 ug/well after 3 hrs by hemocytometer; conditions: HT-1080
[5] = target: Small ribosomal subunit protein uS2 (Homo sapiens) (UniProt P08865); assay: Binding affinity to LAMR1 in human HT1080 cells assessed as maximal cell attachment to compound coated plates at 0.2 ug/well after 3 hrs by hemocytometer; conditions: HT-1080

Activity [1] [%]	Activity [2] [%]	Activity [3] [%]	Activity [4] [%]	Activity [5] [%]	SMILES
62	40	67			CC[C@H](C)[C@@H]1NC(=O)[C@H](Cc2ccc(O)cc2)NC(=O)CNC(=O)[C@@H]2CCCN2C(=O)[C@H](CC(=O)O)NC(=O)[C@H](CCCNC(=N)N)NC(=O)[C@H](CO)NC(=O)CNC1=O (cyclo(DPGYIGSR))
	32	56			CC[C@H](C)[C@@H]1NC(=O)[C@H](Cc2ccc(O)cc2)NC(=O)[C@H](CC(N)=O)NC(=O)[C@H](CCCNC(=N)N)NC(=O)[C@H](CO)NC(=O)CNC1=O (cyclo(GSRNYI))
		76			CC[C@H](C)[C@@H]1NC(=O)[C@H](Cc2ccc(O)cc2)NC(=O)[C@H]2CCCN2C(=O)[C@H](CCCNC(=N)N)NC(=O)[C@H](CO)NC(=O)[C@@H](CO)NC1=O
		75			CC[C@H](C)[C@@H]1NC(=O)[C@H](Cc2ccc(O)cc2)NC(=O)CNC(=O)[C@@H]2CCCN2C(=O)[C@H](CC(=O)O)NC(=O)[C@H](CCCNC(=N)N)NC(=O)[C@H](CO)NC(=O)[C@@H](CO)NC1=O
68	45	72			CC[C@H](C)[C@@H]1NC(=O)[C@H](Cc2ccc(O)cc2)NC(=O)CNC(=O)[C@H](CCCNC(=N)N)NC(=O)[C@H](CO)NC(=O)[C@@H](CO)NC1=O
45	46	81	40	20	CC[C@H](C)[C@@H]1NC(=O)[C@H](Cc2ccc(O)cc2)NC(=O)[C@H](CC(N)=O)NC(=O)[C@H](CCCNC(=N)N)NC(=O)[C@H](CO)NC(=O)[C@@H](CO)NC1=O
	32	53			CC[C@H](C)[C@@H]1NC(=O)[C@H](Cc2ccc(O)cc2)NC(=O)[C@H](CC(N)=O)NC(=O)[C@H](CCCNC(=N)N)NC(=O)[C@H](CO)NC(=O)[C@@H]2CCCN2C1=O (cyclo(IPSRNY))

More lines, now with the values behind:

SMILES	Activity [1] [%]	Activity [2] [%]	Activity [3] [%]	Activity [4] [%]	Activity [5] [%]
CC[C@H](C)[C@@H]1NC(=O)[C@H](Cc2ccc(O)cc2)NC(=O)[C@H](CC(N)=O)NC(=O)[C@H](CCCNC(=N)N)NC(=O)[C@H](CO)NC(=O)[C@@H](CCC(=O)O)NC1=O	58	43	76		
CC[C@H](C)[C@@H]1NC(=O)[C@H](Cc2ccc(O)cc2)NC(=O)[C@H](CC(N)=O)NC(=O)[C@H](CCCNC(=N)N)NC(=O)[C@H](CO)NC(=O)[C@@H](CO)NC(=O)[C@H]([C@@H](C)CC)NC(=O)[C@H](Cc2ccc(O)cc2)NC(=O)[C@H](CC(N)=O)NC(=O)[C@H](CCCNC(=N)N)NC(=O)[C@H](CO)NC(=O)[C@@H](CO)NC1=O			48		
CC[C@H](C)[C@@H]1NC(=O)[C@H](Cc2ccc(O)cc2)NC(=O)[C@H](CC(N)=O)NC(=O)[C@H](CCCNC(=N)N)NC(=O)[C@H](CO)NC(=O)[C@@H]2CCCN2C(=O)[C@H]([C@@H](C)CC)NC(=O)[C@H](Cc2ccc(O)cc2)NC(=O)[C@H](CC(N)=O)NC(=O)[C@H](CCCNC(=N)N)NC(=O)[C@H](CO)NC(=O)[C@@H]2CCCN2C1=O (cyclo(IPSRNYIPSRNY))			57		
CC[C@H](C)[C@@H]1NC(=O)[C@H](Cc2ccc(O)cc2)NC(=O)CNC(=O)[C@@H]2CCCN2C(=O)[C@H](CC(=O)O)NC(=O)[C@H](CCCNC(=N)N)NC(=O)[C@H](CO)NC(=O)[C@@H](CCCCN)NC1=O			45		
CC[C@H](C)[C@H](NC(=O)[C@@H](N)Cc1ccc(O)cc1)C(=O)NCC(=O)N[C@@H](CO)C(=O)N[C@@H](CCCNC(=N)N)C(=O)N[C@H](C)C(=O)N[C@H](CCSC)C(=O)O		31	53		
CC[C@H](C)[C@@H]1NC(=O)[C@H](Cc2ccc(O)cc2)NC(=O)[C@H](CC(N)=O)NC(=O)[C@H](CCCNC(=N)N)NC(=O)[C@H](CO)NC(=O)[C@@H](CCCCN)NC1=O		29	64		
CC[C@H](C)[C@@H]1NC(=O)[C@H](Cc2ccc(O)cc2)NC(=O)CNC(=O)[C@@H]2CCCN2C(=O)[C@H](CC(=O)O)NC(=O)[C@H](CCCNC(=N)N)NC(=O)[C@H](CO)NC(=O)[C@@H](CCC(=O)O)NC1=O			62		
